Test results: patent publication US4113953A, “2-Nitroimidazole derivatives” (Gruppo Lepetit S.p.A., priority 1976, dated 1978)

Experiments:
Trichomonas vaginalis = assay: in vivo activity against Trichomonas vaginalis (ED50, per os, mice) and therapeutic index; settings: for ED50: po, Trichomonas vaginalis
From the text: (§1) The inventive compounds have very interesting antimicrobial and amoebicidal utilities which are ascertained through the usual and well known in vitro tests. Moreover, they display an outstanding in vivo activity against Trichomonas vaginalis, a protozoan which is responsible for itching and other painful and troublesome diseases of the vaginal tract. Their in vivo activity, expressed as an ED50 value, is better than that of other known 2-nitroimidazole derivatives, and their activity is, moreover, coupled with a very low toxicity, expressed as an LD50 value. These properties indicate that the compounds of the invention are very promising anti-Trichomonas agents both from the effectiveness and the safety standpoint, owing to their […] and their high therapeutic indexes (T.I.). Since a therapeutic index is expressed by the following ratio: [formula] it is clear that the higher the T.I., the safer a drug is.
In the following Table, results representative of the inventive compounds are reported.

[1] = toxicity (LD50, per os, mice); format: in vivo
From the text: as §1

SMILES	T.I. (LD50/ED50) (Trichomonas vaginalis; per os, mice)	ED50 (Trichomonas vaginalis; per os, mice) [mg/kg]	T.I. compared with metronidazole, in words (Trichomonas vaginalis; vs metronidazole, LD50/ED50)	ED50 compared with metronidazole, in words (Trichomonas vaginalis; vs metronidazole, per os, mice)	LD50 [1] [mg/kg]
Cn1c(C(C)(C)OC(=O)Oc2ccccc2)cnc1[N+](=O)[O-] [Example 1, α, α,1-Trimethyl-2-nitroimidazole-5-methanol phenylcarbonate]	1969	1.65	better T.I. than metronidazole	better ED50	3250
Cc1ncc([N+](=O)[O-])n1CCO [metronidazole, 1-(2-hydroxyethyl)-2-methyl-5-nitroimidazole, reference compound]	658	5.77	–	–	3800
